Measurements taken from ChEMBL document CHEMBL4371010, “Thermodynamics of DNA Minor Groove Binders” (2019).
Values after ≈ are worked out from the molar mass of the structure shown.

Columns and labels:
Staphylococcus aureus = test: Antibacterial activity against methicillin-resistant Staphylococcus aureus; assay type: functional
Clostridioides difficile = test: […] activity against Clostridium difficile; assay type: functional

Compound | MIC (Staphylococcus aureus) [µM] | MIC (Clostridioides difficile) [µg/mL]
CC1(C)S[C@@H]2[C@H](NC(=O)[C@H](N)c3ccc(O)cc3)C(=O)N2[C@H]1C(=O)O [AMOXICILLIN] | 16.1 (≈ 5.88 µg/mL) | 
Cn1cc(NC(=O)c2cc(NC(=O)c3ccc(/C=C/c4cnc5ccccc5c4)cc3)cn2C)cc1C(=O)NCCN1CCOCC1 [MGB-BP-3] |  | 1 (≈ 1.58 µM)
CN[C@H](CC(C)C)C(=O)N[C@H]1C(=O)N[C@@H](CC(N)=O)C(=O)N[C@H]2C(=O)N[C@H]3C(=O)N[C@H](C(=O)N[C@H](C(=O)O)c4cc(O)cc(O)c4-c4cc3ccc4O)[C@H](O)c3ccc(c(Cl)c3)Oc3cc2cc(c3O[C@@H]2O[C@H](CO)[C@@H](O)[C@H](O)[C@H]2O[C@H]2C[C@](C)(N)[C@H](O)[C@H](C)O2)Oc2ccc(cc2Cl)[C@H]1O [VANCOMYCIN] |  | 1 (≈ 0.69 µM)
COc1cccc(C(=O)Nc2cc(C(=O)Nc3cc(C(=O)Nc4cc(C(=O)NCCCN(C)C)n(C)c4)n(CCC(C)C)c3)n(C)c2)c1 | 2 (≈ 1.32 µg/mL) | 
